This is an account of results in patent US10239889B1, “Pentacyclic compound” (Eisai R&D Management Co., Ltd., priority 2017, dated 2019).

The test concerns rat primary septal neuron culture. As to the kind of experiment: Measurement of acetylcholine (ACh) release in the rat primary septal neuron culture system in the presence of NGF. As to conditions: rat primary septal neurons, with NGF, one day after compound addition, ACh by HPLC. It is filed as cell-based. From the text: Measurement of acetylcholine (ACh) release in the rat primary septal neuron culture system in the presence of NGF
(1) Rat Primary Septal Neuron Culture
The septal area was isolated from Sprague-Dawley (SD) rats (Charles River Laboratories Japan, Inc.) at a fetal age of 18 days, and cultured.
Specifically, fetuses were aseptically removed from pregnant rats under isoflurane anesthesia. The brain was extracted from each fetus, and immersed in ice-cooled L-15 medium (11415-064, Thermo Fisher Scientific). The septal area was dissected from the extracted brain under a stereoscopic microscope. The dissected septal area was subjected to enzyme treatment in an enzyme solution containing 0.25% trypsin (15050-065, Thermo Fisher Scientific) and 0.01% DNase (D5025-150KU, Sigma) at 37° C. for 30 minutes, thereby dispersing the cells. In this case, the enzyme reaction was terminated by adding inactivated horse serum (26050-088, Thermo Fisher Scientific). The enzyme-treated solution was centrifuged at 1000 rpm for 3 minutes, and the supernatant was removed. A medium in an amount of 10 mL was added to the obtained cell mass. The medium used was Dulbecco's Modified Eagle's Medium (044-29765, WAKO) supplemented with N2 supplement (17502-048, Thermo Fisher Scientific), 1 mM sodium pyruvate (11360-070, Thermo Fisher Scientific), and Penicillin-Streptomycin (15140-1221, Thermo Fisher Scientific). The cells of the cell mass to which the medium was added were redispersed by gentle pipetting, and then centrifuged again at 1000 rpm for 3 minutes, and the supernatant was removed. The medium in an amount of 10 mL was added to the obtained cell mass, and the cell dispersion was filtered through a 40-μm nylon mesh (Cell Strainer) to remove the cell mass, thereby obtaining a neuronal cell suspension. The neuronal cell suspension was diluted with the medium, and 10% inactivated bovine serum (26140-079, Thermo Fisher Scientific) and 10% inactivated horse serum were added. Thereafter, 100 μL/well of the suspension was seeded in a 96-well plate (354461, CORNING) pre-coated with poly-D-lysine so that the initial culture density was 1.4×10^5 cells/cm^2. After the seeded cells were cultured under 5% CO2-95% air in a 37° C. incubator for 2 days, the entire medium was replaced with 120 μL of fresh medium, and the cells were subsequently cultured for 5 days.
On the 7th day of culture, compound was added in the following manner. A solution of the test compound in DMSO was diluted with the medium so that the concentration was 10 times higher than the final concentration. NGF (450-01, PEPRO TECH, INC.) was prepared at 0.3 ng/mL. These two solutions were added each in an amount of 15 μL/well, and the mixture was mixed well. The final DMSO concentration was 0.1% or less. Moreover, only DMSO and NGF were added to the control group.
(3) ACh Release Measurement
One day after compound addition, an amount of ACh release was measured by HPLC in the following manner. A warmed buffer was added at 100 μL/well to the well after the medium was eliminated, and the buffer was immediately removed. Thereafter, a buffer to which 10 μm choline, 10 μm physostigmine, and 6 mM KCl were added was added at 120 μL/well. The buffer was prepared by adding 125 mM NaCl, 25 mM 4-(2-hydroxyethyl)-1-piperazineethanesulfonic acid, 1.2 mM KH2PO4, 1.2 mM MgSO4, 2.2 mM CaCl2 (2H2O), and 10 mM glucose to sterilized water, and the final pH of the solution was set to 7.4. After the 96-well plate to which the buffer was added was incubated under 5% CO2-95% air in a 37° C. incubator for 40 minutes, 80 μL of buffer was collected. An internal standard solution IPHC (5×10^−7 M) was added in an amount of 6 μL to the collected buffer, and the buffer was transferred to a tube for HPLC measurement and subjected to HPLC measurement. […]

For the compound `CN1CCc2c(sc3nc4n(c(=O)c23)-c2ccc(F)cc2C(=O)N(C)C4)C1` [Example 1], the “Concentration (μM) showing a 20% or more increase from the amount of ACh in the control group” value worked out at 0.1 µM.

As for `CN1CCc2c(sc3nc4n(c(=O)c23)-c2sccc2C(=O)N(C)C4)C1` [Example 3, 5,10-dimethyl-5,6,9,10,11,12-hexahydropyrido[4″,3″:4′,5′]thieno[2′,3′:4,5]pyrimido[1,2-a]thieno[3,2-f][1,4]diazepine-4,13-dione], the “Concentration (μM) showing a 20% or more increase from the amount of ACh in the control group” value was found to be 0.1 µM.
